This experiment addresses HPK1 (Homo sapiens (Human), UniProt Q92918). Description: HPK1 Lantha binding assay ("Lanth"). The settings on record: binding assays; Morrison Ki fit. The procedure: Example B2: HPK1 Lantha Binding Assay (“Lanth”)
Procedure: I. Compound Dilution:
The compounds to be tested were diluted by preparing 12.5 uL/well of 5 mM compound (100×) in columns 2 and 13 and 10 ul/well of DMSO in columns 3-12, 14-23, and wells A1-H1 and I24-P24 of the compound plate using a Bravo liquid handling platform. For the reference compound, the top concentration was 1 mM. To the plate was added 10 ul 2 mM staurosporine in wells J1-P1 and A24-H24. A 11 point 5-fold compound serial dilution was performed using the Bravo liquid handling platform. From the plate were transferred 2.5 ul of the solutions from column 2 and column 13 to the 10 ul of DMSO in columns 3 and 14 & so on. The compound plate was centrifuged at 2500 rpm for 1 min. From the compound plate was transferred 80 nl of the compounds into an assay plate using the Echo liquid handler system. One compound plate makes two assay plates. Each assay plate is sealed and stored in an N2 cabinet.
The following assay concentrations and times were used: 2 nM HPK1, 2 nM Eu-Anti-GST Ab, and 15 nM Tracer222, with 60 min incubation time.
III. HPK Lantha Binding Assay:
For the binding assay, 4 ul 2×HPK1 and Eu-anti-GST antibody were added to each well of the assay plate using a Multidrop reagent dispenser. The solutions were incubated in a 23 C incubator for 1 h. To each well of the assay plate was added 4 ul 2× Tracer-222 using a Multidrop reagent dispenser. The solutions were again incubated in a 23 C incubator for 1 h. The results of the assay were read using an Envision plate reader with the following parameters: TR_FRET, 340 ex/615 and 665em; 100 usec Delay; and 200 usec integration.
Compound Ki was analyzed using Morrison ki fit model in XL-fit • a. fit=(1−((((E+x)+(Ki*(1+(S/Kd))))−(((((E+x)+(Ki*(1+(S/Kd))))^2)−((4*E)*x))^0.5))/(2*E))) • res=(y−fit) • b. Parameters: • E=enzyme concentration • S=Tracer222 concentration, Kd=Tracer222 Kd • All measurements reported using the same units (uM)
Exemplary compounds were tested in the binding assays.

By Ki is commonly meant the dissociation constant of the complex between target and ligand, obtained from inhibition or displacement. Read a low Ki as a stronger hold on the target.

Sequence of HPK1 (Q92918 1-346 limits assumed): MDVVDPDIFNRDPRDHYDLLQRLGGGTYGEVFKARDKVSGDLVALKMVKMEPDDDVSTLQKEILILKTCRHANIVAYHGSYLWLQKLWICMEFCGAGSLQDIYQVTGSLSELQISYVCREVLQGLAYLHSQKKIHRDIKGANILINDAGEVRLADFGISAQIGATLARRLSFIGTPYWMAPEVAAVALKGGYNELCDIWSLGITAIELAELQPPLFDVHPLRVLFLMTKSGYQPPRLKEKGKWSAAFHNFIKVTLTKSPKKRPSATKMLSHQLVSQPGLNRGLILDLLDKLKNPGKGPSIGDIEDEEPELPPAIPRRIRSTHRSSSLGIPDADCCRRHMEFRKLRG

`CCc1cnn([C@H]2CC[C@@]3(CNc4ncc(-c5ccc(N)c(C(=O)N(C)C)c5F)c(Cl)c43)C2)c1` (relative stereo) [Compound 170a, 6-Amino-3-((1R,3S)-4′-chloro-3-(4-ethyl-1H-pyrazol-1-yl)-1′,2′-dihydrospiro[cyclopentane-1,3′-pyrrolo[2,3-b]pyridin]-5′-yl)-2-fluoro-N,N-dimethylbenzamide] gave a Ki of 5.54 nM.
Compound `CN(C)C(=O)c1c(N)ccc(-c2cnc3c(c2Cl)[C@]2(CC[C@H](n4cc(Cl)cn4)C2)CN3)c1F` (relative stereo) [Compound 171a, 6-Amino-3-((1R,3S)-4′-chloro-3-(4-chloro-1H-pyrazol-1-yl)-1′,2′-dihydrospiro[cyclopentane-1,3′-pyrrolo[2,3-b]pyridin]-5′-yl)-2-fluoro-N,N-dimethylbenzamide] had a Ki of 6.58 nM.
In turn, `CN(C)C(=O)c1c(N)ccc(-c2cnc3c(c2Cl)[C@]2(CC[C@H](Oc4ccccn4)C2)CN3)c1F` (relative stereo) [Compound 173a, 6-Amino-3-((1R,3S)-4′-chloro-3-(pyridin-2-yloxy)-1′,2′-dihydrospiro[cyclopentane-1,3′-pyrrolo[2,3-b]pyridin]-5′-yl)-2-fluoro-N,N-dimethylbenzamide] displayed an inhibition constant Ki of 6.75 nM.
With `Cc1cn([C@H]2CC[C@@]3(CNc4ncc(-c5ccc(N)c(C(=O)N(C)C)c5F)c(Cl)c43)C2)nc1N` (relative stereo) [Compound 177a, 6-Amino-3-((1R,3S)-3-(3-amino-4-methyl-1H-pyrazol-1-yl)-4′-chloro-1′,2′-dihydrospiro[cyclopentane-1,3′-pyrrolo[2,3-b]pyridin]-5′-yl)-2-fluoro-N,N-dimethylbenzamide], affinity was put at a Ki of 14.7 nM.
In turn, `Cc1cnn([C@H]2CC[C@@]3(CNc4ncc(-c5ccc(N)c(C(=O)N(C)C)c5F)c(Cl)c43)C2)c1N` (relative stereo) [Compound 178a, 6-Amino-3-((1R,3S)-3-(5-amino-4-methyl-1H-pyrazol-1-yl)-4′-chloro-1′,2′-dihydrospiro[cyclopentane-1,3′-pyrrolo[2,3-b]pyridin]-5′-yl)-2-fluoro-N,N-dimethylbenzamide] showed a Ki of 15.9 nM.
`CN(C)C(=O)c1c(N)ccc(-c2cnc3c(c2Cl)[C@]2(CC[C@H](n4cc(C(N)=O)cn4)C2)CN3)c1F` (relative stereo) [Compound 180a, 1-((1R,3S)-5′-(4-Amino-3-(dimethylcarbamoyl)-2-fluorophenyl)-4′-chloro-1′,2′-dihydrospiro[cyclopentane-1,3′-pyrrolo[2,3-b]pyridin]-3-yl)-1H-pyrazole-4-carboxamide] had a Ki of 46.1 nM.
To `CN(C)C(=O)c1c(N)ccc(-c2cnc3c(c2Cl)[C@]2(CC[C@H](n4ccccc4=O)C2)CN3)c1F` (relative stereo) [Compound 196a, 6-Amino-3-((1R,3S)-4′-chloro-3-(2-oxopyridin-1(2B)-yl)-1′,2′-dihydrospiro[cyclopentane-1,3′-pyrrolo[2,3-b]pyridin]-5′-yl)-2-fluoro-N,N-dimethylbenzamide] belongs 97.6 nM; to `CN(C)C(=O)c1c(N)ccc(-c2cnc3c(c2Cl)[C@@]2(CN3)C[C@@H]2c2ccncc2)c1F` (relative stereo) [Compound 198a, 6-Amino-3-((1R,2R)-4′-chloro-2-(pyridin-4-yl)-1′,2′-dihydrospiro[cyclopropane-1,3′-pyrrolo[2,3-b]pyridin]-5′-yl)-2-fluoro-N,N-dimethylbenzamide], 15.2 nM.
Compound `CN(C)C(=O)c1c(N)ccc(-c2cnc3c(c2Cl)[C@@]2(CN3)C[C@@H]2c2ccccc2)c1F` (relative stereo) [Compound 201a, 6-Amino-3-((1R,2R)-4′-chloro-2-phenyl-1′,2′-dihydrospiro[cyclopropane-1,3′-pyrrolo[2,3-b]pyridin]-5′-yl)-2-fluoro-N,N-dimethylbenzamide] gave a Ki of 3.58 nM.
In the case of `CN(C)C(=O)c1c(N)ccc(-c2cnc3c(c2Cl)[C@]2(CC[C@H](CO)C2)CN3)c1F` (relative stereo) [Compound 259a, 6-Amino-3-((1R,3S)-4′-chloro-3-(hydroxymethyl)-1′,2′-dihydrospiro[cyclopentane-1,3′-pyrrolo[2,3-b]pyridin]-5′-yl)-2-fluoro-N,N-dimethylbenzamide], affinity was put at a Ki of 6.1 nM.
Consider `CN(CCN1CCOCC1)C(=O)c1c(N)ccc(-c2cnc3c(c2Cl)[C@]2(CC[C@](C)(C#N)C2)CN3)c1F` (relative stereo) [Compound 272a, 6-Amino-3-((1R,3S)-4′-chloro-3-cyano-3-methyl-1′,2′-dihydrospiro[cyclopentane-1,3′-pyrrolo[2,3-b]pyridin]-5′-yl)-2-fluoro-N-methyl-N-(2-morpholinoethyl)benzamide], for which the Ki was 30.8 nM.
Consider `CN(C)CCCN(C)C(=O)c1c(N)ccc(-c2cnc3c(c2Cl)[C@]2(CC[C@](C)(C#N)C2)CN3)c1F` (relative stereo) [Compound 275a, 6-Amino-3-((1R,3S)-4′-chloro-3-cyano-3-methyl-1′,2′-dihydrospiro[cyclopentane-1,3′-pyrrolo[2,3-b]pyridin]-5′-yl)-N-(3-(dimethylamino)propyl)-2-fluoro-N-methylbenzamide], for which the Ki was found to be 41 nM.
For the compound `CN1CCN(c2cccc3c(-c4cnc5c(c4Cl)[C@]4(CC[C@H](C(N)=O)C4)CN5)c[nH]c23)C(=O)C1` (relative stereo) [Compound 304a, (1R,3S)-4′-Chloro-5′-(7-(4-methyl-2-oxopiperazin-1-yl)-1H-indol-3-yl)-1′,2′-dihydrospiro[cyclopentane-1,3′-pyrrolo[2,3-b]pyridine]-3-carboxamide], the Ki was 43.9 nM.
Consider `NC(=O)[C@H]1CC[C@@]2(CNc3ncc(-c4c[nH]c5c(N6CCNCC6=O)cccc45)c(Cl)c32)C1` (relative stereo) [Compound 305a, (1RS,3SR)-4′-Chloro-5′-(7-(2-oxopiperazin-1-yl)-1H-indol-3-yl)-1′,2′-dihydrospiro[cyclopentane-1,3′-pyrrolo[2,3-b]pyrdine]-3-carboxamide], for which the Ki came out at 38.6 nM.
For `C[C@@H]1C[C@@]12CNc1ncc(-c3c[nH]c4c(N5CCNCC5=O)cccc34)cc12` (relative stereo) [Compound 306a, 1-(3-((1R,2R)-2-methyl-1′,2′-dihydrospiro[cyclopropane-1,3′-pyrrolo[2,3-b]pyridin]-5′-yl)-1H-indol-7-yl)piperazin-2-one], the Ki was determined as 43.2 nM.
`C[C@]1(C#N)CC[C@@]2(CNc3ncc(-c4c[nH]c5ccc(C#N)cc45)c(Cl)c32)C1` (relative stereo) [Compound 330a, (1R,3S)-4′-Chloro-5′-(5-cyano-1H-indol-3-yl)-3-methyl-1′,2′-dihydrospiro[cyclopentane-1,3′-pyrrolo[2,3-b]pyridine]-3-carbonitrile] displayed a Ki of 73.9 nM.
`C[C@]1(C(N)=O)CC[C@@]2(CNc3ncc(-c4c[nH]c5ccc(C#N)cc45)c(Cl)c32)C1` (relative stereo) [Compound 337a, (1R,3S)-4′-Chloro-5′-(5-cyano-1H-indol-3-yl)-3-methyl-1′,2′-dihydrospiro[cyclopentane-1,3′-pyrrolo[2,3-b]pyridine]-3-carboxamide] returned a Ki of 28.4 nM.
For the compound `CN(C)C(=O)c1c(N)ccc(-c2cnc3c(c2Cl)[C@@]2(CN3)C[C@@H]2CO)c1F` (single isomer, unassigned) [Compound 39c], the affinity corresponds to a Ki of 11.6 nM.
In the case of `CN(C)C(=O)c1c(N)ccc(-c2cnc3c(c2Cl)[C@]2(CN3)C[C@H]2CO)c1F` (single isomer, unassigned) [Compound 39d], the Ki amounted to 18.7 nM.
`Nc1cc(-c2cnc3c(c2Cl)[C@]2(CC[C@H](O)C2)CN3)cc(-c2ncccc2CO)c1` (single isomer, unassigned) [Compound 61a] yielded a Ki of 39.1 nM.
To `Nc1cc(-c2cnc3c(c2Cl)[C@@]2(CC[C@@H](O)C2)CN3)cc(-c2ncccc2CO)c1` (single isomer, unassigned) [Compound 61b] belongs 12.1 nM; to `Cn1cccc(-c2cccc(-c3cnc4c(c3Cl)C3(CC[C@@H](O)C3)CN4)c2)c1=O` (single isomer, unassigned) [Compound 68a], 17.9 nM; to `Cn1cccc(-c2cccc(-c3cnc4c(c3Cl)C3(CC[C@@H](O)C3)CN4)c2)c1=O` (single isomer, unassigned) [Compound 68b], 7.7 nM.
To `CN(C)C(=O)c1c(N)ccc(-c2cnc3c(c2Cl)[C@]2(CC[C@@H](n4ccnn4)C2)CN3)c1F` (single isomer, unassigned) [Compound 90c] belongs 80.4 nM; to `CN(C)C(=O)c1c(N)ccc(-c2cnc3c(c2Cl)[C@]2(CC[C@H](c4ncn[nH]4)C2)CN3)c1F` (single isomer, unassigned) [Compound 99a], 14.5 nM.
For the compound `CN(C)C(=O)c1c(N)ccc(-c2cnc3c(c2Cl)[C@]2(CC[C@H](C(N)=O)C2)CN3)c1F` (single isomer, unassigned) [Compound 100a], the affinity corresponds to a Ki of 63.5 nM.

Values taken from patent US12208088B2 (Genentech, Inc., priority 2018, dated 2025).
